US11345707B2, “Atropisomerism for increased kinase inhibitor selectivity” (SAN DIEGO STATE UNIVERSITY RESEARCH FOUNDATION, priority 2015, dated 2022)

How the values were obtained:
[1] = test system: panel of tyrosine kinases; test: Kinase inhibitor profiling across a panel of tyrosine kinases (Z′-LYTE), selectivity score; type: biochemical
Description: To analyze each analog's selectivity across the panel we turned to selectivity scores (Davis et al., Nat. Biotechnol. 2011, 29, 1046-51), simply the number of kinases inhibited above a certain threshold divided by the number of kinases evaluated. […] For example at 1000 nM 2e-(R) yielded an S(40%) of 0.11 while 2e-(S) gave an S(40%) of 0.16. […] Differences in selectivity between 2e-(R) and 2e-(S) at 5000 nM (4.5 times the IC50 of 2e-(S) toward Src) and for 5 at 1000 nM (6.25 times the IC50 of 5 toward Src) can be viewed graphically across tyrosine kinases (FIG. 3). Importantly, similar trends were also observed across each of the atropisomeric series tested.
All samples were sent out to Life Technologies to obtain kinase inhibition data. A brief description of the assays and analyses are included below.
Assay Theory (SelectScreen® Kinase Profiling Services (Life Technologies, Madison, Wis. USA). The Z′-LYTE® biochemical assay employs a fluorescence-based, coupled-enzyme format and is based on the differential sensitivity of phosphorylated and non-phosphorylated peptides to proteolytic cleavage. The peptide substrate is labeled with two fluorophores—one at each end—that make up a FRET pair.
In the primary reaction, the kinase transfers the gamma-phosphate of ATP to a single tyrosine, serine or threonine residue in a synthetic FRET-peptide. In the secondary reaction, a site-specific protease recognizes and cleaves non-phosphorylated FRET-peptides. Phosphorylation of FRET-peptides suppresses cleavage by the Development Reagent. Cleavage disrupts FRET between the donor (i.e., coumarin) and acceptor (i.e., fluorescein) fluorophores on the FRET-peptide, whereas uncleaved, phosphorylated FRET-peptides maintain FRET. A ratiometric method, which calculates the ratio (the Emission Ratio) of donor emission to acceptor emission after excitation of the donor fluorophore at 400 nm, is used to quantitate reaction progress, as shown in the equation below: […]
A significant benefit of this ratiometric method for quantitating reaction progress is the elimination of well-to-well variations in FRET-peptide concentration and signal intensities. As a result, the assay yields very high Z′-factor values (>0.7) at a low percent phosphorylation. Both cleaved and uncleaved FRET-peptides contribute to the fluorescence signals and therefore to the Emission Ratio. The extent of phosphorylation of the FRET-peptide can be calculated from the Emission Ratio. The Emission Ratio will remain low 1f the FRET-peptide is phosphorylated (i.e., no kinase inhibition) and will be high 1f the FRET-peptide is non-phosphorylated (i.e., kinase inhibition).
Both cleaved and uncleaved FRET-peptides contribute to the fluorescence signals and therefore to the Emission Ratio. The extent of phosphorylation of the FRET-peptide can be calculated from the Emission Ratio. The Emission Ratio will remain low 1f the FRET-peptide is phosphorylated (i.e., no kinase inhibition) and will be high 1f the FRET-peptide is non-phosphorylated (i.e., kinase inhibition).

[2] = Experimental measurement of the barriers to rotation (racemization followed by chiral HPLC); type: physicochemical
Description: The enantiomerically enriched analogues were then dissolved in ethanol and placed in a sealed 2-dram vial and heated under constant temperature on an aluminum block. At each time point, an aliquot of the mixture was removed and quenched in an HPLC vial containing ice cold 80:20 hexanes:ethanol. […] The timepoint and enantiomeric excess (ee) data was then plotted in order to determine an observed rate constant, kobs, at the corresponding temperature. The barrier to rotation was then calculated using the relationship of kracemization=2*kenantiomerization and then substituted into the Gibbs Free Energy Equation:
[formula] where h=Planck Constant, kb=Boltzmann Constant, T=Temp. (K), R=Gas Constant.

t1/2 to Racemization at 37° C. [2]	S(40%): number of kinases inhibited greater than 40% divided by number of kinases tested (including Src) ([1]; 200 nM)	activity for the tyrosine kinase panel tested ([1]; 200 nM and 1000 nM)	SMILES	S(40%): number of kinases inhibited greater than 40% divided by number of kinases tested (including Src) ([1]; 1000 nM)	S(40%): number of kinases inhibited greater than 40% divided by number of kinases tested (including Src) ([1]; 5000 nM)
–	–	–	COc1ccc(Cl)c(-c2c(Cl)n(C(C)(C)C)c3ncnc(N)c23)c1 (single isomer, unassigned) [2e-(R), 7-(tert-butyl)-6-chloro-5-(2-chloro-5-methoxyphenyl)-7H-pyrrolo[2,3-d]pyrimidin-4-amine]	0.11	0.44
–	–	–	COc1ccc(Cl)c(-c2c(Cl)n(C(C)(C)C)c3ncnc(N)c23)c1 (single isomer, unassigned) [2e-(S), 7-(tert-butyl)-6-chloro-5-(2-chloro-5-methoxyphenyl)-7H-pyrrolo[2,3-d]pyrimidin-4-amine]	0.16	0.61
18 days	–	–	COc1ccc(Cl)c(-c2c(Cl)n(C3CCCC3)c3ncnc(N)c23)c1 (racemic) [Compound 1e, 6-chloro-5-(2-chloro-5-methoxyphenyl)-7-cyclopentyl-7H-pyrrolo[2,3-d]pyrimidin-4-amine]	–	–
–	0.44	near pan activity	COc1cccc(-c2cn(C(C)(C)C)c3ncnc(N)c23)c1 [Compound 5, reference compound]	0.72	–
